Assay results reported in patent publication US20240041042A1, “1-(PYRIDYL)-5-AZINYLPYRAZOLE DERIVATIVES, AND THEIR USE FOR CONTROL OF UNDESIRED PLANT GROWTH” (Bayer Aktiengesellschaft, priority 2020, published 2024).
Where two headings read alike, the source gives them in different places.

Assays:
Type in all cases: in vivo
[1] = tested on: Alopecurus myosuroides (ALOMY); experiment: Pre-emergence herbicidal action against ALOMY; settings: scored visually after about 3 weeks, 100% = plants have died
Method in brief: (§1)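 Herbicide applied to soil before seedling emergence, at 600 l/ha spray volume with 0.5% additive and rates up to 320 g/ha. Evaluation: visual percentage effect, about 3 weeks later, greenhouse-grown pots compared with untreated ones.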

[2] = tested on: Amaranthus retroflexus (AMARE); experiment: Pre-emergence herbicidal action against AMARE; settings: visual scoring after about 3 weeks vs untreated controls
Method in brief: as §1

Avena fatua (AVEFA) [3] = experiment: Pre-emergence herbicidal action against AVEFA; settings: visual scoring after about 3 weeks vs untreated controls
Method in brief: as §1

[4] = tested on: Echinochloa crus-galli (ECHCG); experiment: Pre-emergence herbicidal action against ECHCG
Method in brief: as §1

Lolium rigidum (LOLRI) [5] = experiment: Pre-emergence herbicidal action against LOLRI; settings: dosage 320 g/ha
Method in brief: as §1

[6] = tested on: Matricaria inodora (MATIN); experiment: Pre-emergence herbicidal action against MATIN
Method in brief: as §1

[7] = tested on: Pharbitis purpurea (PHBPU); experiment: Pre-emergence herbicidal action against PHBPU; settings: dosage 320 g/ha
Method in brief: as §1

[8] = tested on: Polygonum convolvulus (POLCO); experiment: Pre-emergence herbicidal action against POLCO; settings: dosage 320 g/ha
Method in brief: as §1

Setaria viridis (SETVI) [9] = experiment: Pre-emergence herbicidal action against SETVI
Method in brief: as §1

[10] = tested on: Verconica persica (VERPE); experiment: Pre-emergence herbicidal action against VERPE; settings: dosage 320 g/ha
Method in brief: as §1

Viola tricolor (VIOTR) [11] = experiment: Pre-emergence herbicidal action against VIOTR; settings: 320 g/ha, Viola tricolor
Method in brief: as §1

[12] = tested on: Abutilon theophrasti (ABUTH); experiment: Post-emergence herbicidal action against ABUTH; settings: visual rating about 3 weeks after treatment vs untreated controls (100% = plants have died, 0% = like control plants)
Method in brief: (§2)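 Doses of 320 g/ha or lower, suffixes a, b and c marking different dosages, were applied post-emergence at the one-leaf stage in 600 l/ha water with 0.5% additive. Damage was assessed visually after about 3 weeks in the greenhouse.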

[13] = tested on: Alopecurus myosuroides (ALOMY); experiment: Post-emergence herbicidal action against ALOMY; settings: visual rating about 3 weeks after treatment vs untreated controls (100% = plants have died, 0% = like control plants)
Method in brief: as §2

[14] = tested on: Amaranthus retroflexus (AMARE); experiment: Post-emergence herbicidal action against AMARE
Method in brief: as §2

Avena fatua (AVEFA) [15] = experiment: Post-emergence herbicidal action against AVEFA; settings: visual rating about 3 weeks after treatment
Method in brief: as §2

[16] = tested on: Echinochloa crus-galli (ECHCG); experiment: Post-emergence herbicidal action against ECHCG
Method in brief: as §2

Lolium rigidum (LOLRI) [17] = experiment: Post-emergence herbicidal action against LOLRI
Method in brief: as §2

[18] = tested on: Matricaria inodora (MATIN); experiment: Post-emergence herbicidal action against MATIN; settings: dosage 80 g/ha
Method in brief: as §2

[19] = tested on: Pharbitis purpurea (PHBPU); experiment: Post-emergence herbicidal action against PHBPU
Method in brief: as §2

[20] = tested on: Polygonum convolvulus (POLCO); experiment: Post-emergence herbicidal action against POLCO
Method in brief: as §2

Setaria viridis (SETVI) [21] = experiment: Post-emergence herbicidal action against SETVI
Method in brief: as §2

[22] = tested on: Verconica persica (VERPE); experiment: Post-emergence herbicidal action against VERPE
Method in brief: as §2

Oryza sativa (ORYSA) = settings: crop plant compatibility
Method in brief: (§3)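 Test crops were treated 2 to 3 weeks after sowing, once they reached one leaf, by spraying compound in water with 0.5% additive at 600 l/ha. Visual scoring compared them with untreated controls roughly 3 weeks on, and appendices a, b and c denote different doses.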

Zea mays (ZEAMX) = settings: for Post-emergence action against ZEAMX in % (crop plant compatibility): 20 g/ha, effect in comparison to untreated controls
Method in brief: as §3

[23] = tested on: Digitaria sanguinalis (DIGSA); experiment: Post-emergence herbicidal action against DIGSA; settings: visual rating about 3 weeks after treatment
Experimental: Seeds of monocotyledonous and dicotyledonous weeds and crop plants are placed in sandy loam in plastic or organic planting pots, covered with soil and cultivated in a greenhouse under controlled growth conditions. 2 to 3 weeks after sowing, the test plants are treated at the one-leaf stage. The compounds of the invention, formulated in the form of wettable powders (WP) or as emulsion concentrates (EC), are then sprayed onto the green parts of the plants as aqueous suspension or emulsion with addition of 0.5% additive at a water application rate of 600 l/ha (converted). After the test plants have been kept in the greenhouse under optimum growth conditions for about 3 weeks, the activity of the preparations is rated visually in comparison to untreated controls. For example, 100% activity=the plants have died, 0% activity=like control plants.
Tables B1 to B13 below show the effects of selected compounds of the general formula (I) according to Table 1 on various harmful plants and at an application rate corresponding to 320 g/ha or lower, which were obtained by the experimental procedure mentioned above. The appendices “a”, “b” and “c” give differentiation by dosage used with otherwise the same harmful plants tested.

Viola tricolor (VIOTR) [24] = experiment: Post-emergence herbicidal action against VIOTR
Method in brief: as §2

[25] = 20 g/ha, effect vs untreated controls
[26] = 80 g/ha, effect in comparison to untreated controls

Compound: CCOC(=O)COc1nn(-c2ccccn2)c(-c2ccc(F)nc2)c1Cl [Example I-100]
- Pre-emergence action against ALOMY ([1]; 80 g/ha): 100%
- Pre-emergence action against ALOMY ([1]; 320 g/ha): 100%
- Pre-emergence action against AMARE in % ([2]; 80 g/ha): 90%
- Pre-emergence action against AMARE in % ([2]; 320 g/ha): 100%
- Pre-emergence action against AVEFA in % (Avena fatua (AVEFA) [3]; 80 g/ha): 80%
- Pre-emergence action against AVEFA in % (Avena fatua (AVEFA) [3]; 320 g/ha): 90%
- Pre-emergence action against ECHCG in % ([4]; dosage 80 g/ha): 80%
- Pre-emergence action against ECHCG in % ([4]; dosage 320 g/ha): 100%
- Pre-emergence action against LOLRI in % (Lolium rigidum (LOLRI) [5]): 100%
- Pre-emergence action against MATIN in % ([6]; dosage 80 g/ha): 80%
- Pre-emergence action against MATIN in % ([6]; dosage 320 g/ha): 80%
- Pre-emergence action against PHBPU in % [7]: 90%
- Pre-emergence action against POLCO in % [8]: 90%
- Pre-emergence action against SETVI in % (Setaria viridis (SETVI) [9]; dosage 80 g/ha): 90%
- Pre-emergence action against SETVI in % (Setaria viridis (SETVI) [9]; dosage 320 g/ha): 100%
- Pre-emergence action against VERPE in % [10]: 100%
- Pre-emergence action against VIOTR in % (Viola tricolor (VIOTR) [11]): 90%
- Post-emergence action against ABUTH in % ([12]; 80 g/ha): 80%
- Post-emergence action against ALOMY in % ([13]; 80 g/ha): 100%
- Post-emergence action against AMARE in % ([14]; 80 g/ha, visual rating about 3 weeks after treatment vs untreated controls (100% = plants have died, 0% = like control plants)): 90%
- Post-emergence action against AVEFA in % (Avena fatua (AVEFA) [15]; 80 g/ha): 100%
- Post-emergence action against ECHCG in % ([16]; dosage 80 g/ha): 90%
- Post-emergence action against LOLRI in % (Lolium rigidum (LOLRI) [17]; dosage 80 g/ha): 80%
- Post-emergence action against MATIN in % [18]: 90%
- Post-emergence action against PHBPU in % ([19]; dosage 80 g/ha): 90%
- Post-emergence action against POLCO in % ([20]; dosage 80 g/ha): 90%
- Post-emergence action against SETVI in % (Setaria viridis (SETVI) [21]; dosage 80 g/ha): 80%
- Post-emergence action against VERPE in % ([22]; dosage 80 g/ha): 80%
- Post-emergence action against ORYSA in % (Oryza sativa (ORYSA); [25]): 0%
- Post-emergence action against ZEAMX in % (crop plant compatibility) (Zea mays (ZEAMX)): 10%

Compound: COC(=O)C(C)OC(=O)C(C)Oc1nn(-c2ccccn2)c(-c2ccc(F)nc2)c1Cl (stereo not shown) [Example I-299]
- Post-emergence action against ALOMY in % ([13]; 80 g/ha): 80%
- Post-emergence action against ALOMY in % ([13]; 320 g/ha): 90%
- Post-emergence action against AMARE in % ([14]; 320 g/ha, visual rating about 3 weeks after treatment): 80%
- Post-emergence action against AVEFA in % (Avena fatua (AVEFA) [15]; 80 g/ha): 80%
- Post-emergence action against AVEFA in % (Avena fatua (AVEFA) [15]; 320 g/ha): 80%
- Post-emergence action against DIGSA in % ([23]; 80 g/ha): 80%
- Post-emergence action against DIGSA in % ([23]; 320 g/ha): 90%
- Post-emergence action against ECHCG in % ([16]; dosage 80 g/ha): 80%
- Post-emergence action against ECHCG in % ([16]; dosage 320 g/ha): 90%
- Post-emergence action against LOLRI in % (Lolium rigidum (LOLRI) [17]; dosage 80 g/ha): 80%
- Post-emergence action against LOLRI in % (Lolium rigidum (LOLRI) [17]; dosage 320 g/ha): 80%
- Post-emergence action against PHBPU in % ([19]; dosage 320 g/ha): 90%
- Post-emergence action against POLCO in % ([20]; dosage 320 g/ha): 80%
- Post-emergence action against SETVI in % (Setaria viridis (SETVI) [21]; dosage 320 g/ha): 90%
- Post-emergence action against VERPE in % ([22]; 320 g/ha, VERPE): 80%
- Post-emergence action against VERPE in % ([22]; dosage 80 g/ha): 80%
- Post-emergence action against VIOTR in % (Viola tricolor (VIOTR) [24]; 80 g/ha): 80%
- Post-emergence action against VIOTR in % (Viola tricolor (VIOTR) [24]; 320 g/ha): 90%
- Post-emergence action against ORYSA in % (Oryza sativa (ORYSA); [25]): 10%
- Post-emergence action against ORYSA in % (Oryza sativa (ORYSA); [26]): 20%
- Post-emergence action against ZEAMX in % (crop plant compatibility) (Zea mays (ZEAMX)): 0%
- Post-emergence action against ZEAMX in % (Zea mays (ZEAMX); crop plant compatibility, 80 g/ha, effect vs untreated controls): 10%

Compound: C[C@@H](Oc1nn(-c2ccccn2)c(-c2ccc(F)nc2)c1Br)C(=O)O [Example I-260]
- Post-emergence action against ABUTH in % ([12]; 320 g/ha): 80%
- Post-emergence action against ALOMY in % ([13]; 320 g/ha): 90%
- Post-emergence action against AVEFA in % (Avena fatua (AVEFA) [15]; 80 g/ha): 80%
- Post-emergence action against AVEFA in % (Avena fatua (AVEFA) [15]; 320 g/ha): 80%
- Post-emergence action against DIGSA in % ([23]; 80 g/ha): 90%
- Post-emergence action against DIGSA in % ([23]; 320 g/ha): 90%
- Post-emergence action against ECHCG in % ([16]; dosage 320 g/ha): 90%
- Post-emergence action against LOLRI in % (Lolium rigidum (LOLRI) [17]; dosage 320 g/ha): 80%
- Post-emergence action against PHBPU in % ([19]; dosage 320 g/ha): 80%
- Post-emergence action against POLCO in % ([20]; dosage 80 g/ha): 80%
- Post-emergence action against POLCO in % ([20]; dosage 320 g/ha): 80%
- Post-emergence action against SETVI in % (Setaria viridis (SETVI) [21]; dosage 320 g/ha): 90%
- Post-emergence action against VERPE in % ([22]; 320 g/ha, VERPE): 80%
- Post-emergence action against ORYSA in % (Oryza sativa (ORYSA); [25]): 10%
- Post-emergence action against ORYSA in % (Oryza sativa (ORYSA); [26]): 10%
